Source: ChEMBL document CHEMBL1143215, “Orally active esters of dihydroartemisinin: Synthesis and antimalarial activity against multidrug-resistant Plasmodium yoelii in mice” (Bioorg Med Chem Lett, 2008)
Calls of active or inactive are those of the source. No cut-off for these calls is given here.

Experiments:
[1] = Partition coefficient, log P of the compound; format: physicochemical; settings: octanol/water
[2] = test system: Plasmodium yoelii nigeriensis; assay: Reduced parasitemia in multidrug-resistant Plasmodium yoelii nigeriensis infected Swiss mice (Mus musculus) at 48 mg/kg peroral dose after 4 days; format: functional; design: scale not given: the % may be the effect or the level left; settings: route oral
[3] = test system: Plasmodium yoelii nigeriensis; assay: Antimalarial activity as reduced parasitemia day 4 against multidrug-resistant Plasmodium yoelii nigeriensis infected Swiss mice (Mus musculus) at 24 mg/kg/day peroral dose over 4 days; format: functional; design: scale not given: the % may be the effect or the level left; settings: route oral
[4] = test system: Plasmodium yoelii nigeriensis; assay: Survival in multidrug-resistant Plasmodium yoelii nigeriensis infected Swiss mice (Mus musculus) at 12 mg/kg peroral dose after 28 days; format: functional
[5] = test system: Plasmodium yoelii nigeriensis; assay: Reduced parasitemia in multidrug-resistant Plasmodium yoelii nigeriensis infected Swiss mice (Mus musculus) at 12 mg/kg peroral dose after 4 days; format: functional; design: scale not given: the % may be the effect or the level left; settings: route oral
[6] = Chemical stability in acidic solution containing tetrahydrofuran and 10% aqueous HCl after 96 hrs; format: physicochemical; settings: acidic solution of tetrahydrofuran and 10% aqueous HCl; read-out: Stability

SMILES	logP [1]	Activity [2]	Activity [3]	Activity [4]	Activity [5]	remaining at 96 h [6]	Activity ([4]; route oral)
C[C@H]1[C@H](OC(=O)CC2c3ccccc3-c3ccccc32)O[C@@H]2O[C@]3(C)CC[C@H]4[C@H](C)CC[C@@H]1[C@@]24OO3	6.79	100%	100%	inactive	100%		
CCO[C@H]1O[C@@H]2O[C@@]3(C)CC[C@H]4[C@H](C)CC[C@@H]([C@H]1C)[C@@]24OO3 [ARTEMOTIL]		100%	100%				
C[C@H]1[C@H](OC(=O)CCC(=O)O)O[C@@H]2O[C@@]3(C)CC[C@H]4[C@H](C)CC[C@@H]1[C@@]24OO3 [ARTESUNATE]		100%	100%				
C[C@H]1[C@H](OCc2ccc(-c3ccccc3)cc2)O[C@@H]2O[C@]3(C)CC[C@H]4[C@H](C)CC[C@@H]1[C@@]24OO3					100%		
C[C@H]1[C@H](OC(=O)c2ccc(-c3ccccc3)cc2)O[C@@H]2O[C@]3(C)CC[C@H]4[C@H](C)CC[C@@H]1[C@@]24OO3	6.95	100%	100%				
C[C@H]1[C@H](OC(=O)COc2ccc(-c3ccccc3)cc2)O[C@@H]2O[C@]3(C)CC[C@H]4[C@H](C)CC[C@@H]1[C@@]24OO3	6.53	100%	100%		100%		
C[C@H]1[C@H](OC(=O)CCC23CC4CC(CC(C4)C2)C3)O[C@@H]2O[C@]3(C)CC[C@H]4[C@H](C)CC[C@@H]1[C@@]24OO3	6.41	100%	100%		100%		
C[C@H]1[C@H](OC(=O)C2c3ccccc3-c3ccccc32)O[C@@H]2O[C@]3(C)CC[C@H]4[C@H](C)CC[C@@H]1[C@@]24OO3	6.61	100%	100%		100%	80%	
C[C@H]1[C@H](OCC23CC4CC(CC(C4)C2)C3)O[C@@H]2O[C@]3(C)CC[C@H]4[C@H](C)CC[C@@H]1[C@@]24OO3					100%		
C[C@H]1[C@H](OC(=O)CC2C3CC4CC(C3)CC2C4)O[C@@H]2O[C@]3(C)CC[C@H]4[C@H](C)CC[C@@H]1[C@@]24OO3 (some centres not stated)	5.85	100%	100%		100%		
C[C@H]1[C@H](OC(=O)Cc2ccc(-c3ccccc3)cc2)O[C@@H]2O[C@]3(C)CC[C@H]4[C@H](C)CC[C@@H]1[C@@]24OO3	6.89	100%	100%				
C[C@H]1[C@H](OC(=O)CC23CC4CC(CC(C4)C2)C3)O[C@@H]2O[C@]3(C)CC[C@H]4[C@H](C)CC[C@@H]1[C@@]24OO3	5.99	100%	100%		100%		20%
C[C@H]1[C@H](OC(=O)COc2ccccc2-c2ccccc2)O[C@@H]2O[C@]3(C)CC[C@H]4[C@H](C)CC[C@@H]1[C@@]24OO3	6.53	100%	100%		100%		
C[C@H]1[C@H](OC(=O)C23CC4CC(CC(C4)C2)C3)O[C@@H]2O[C@]3(C)CC[C@H]4[C@H](C)CC[C@@H]1[C@@]24OO3	6.05	100%	100%		100%		
